Earlier results as cited in patent US20210338713A1, “Reduction of Pulmonary Inflammation Using Therapeutic Gas Mixtures” (Brain Cancer Research Institute, priority 2020, published 2021).

Columns and labels:
RDS patients = details: surviving patients, six months post-treatment, low-dose iNO
[1] = test system: pediatric patients with ARDS
ovine model of ARDS = details: inhalation, P<0.05
[2] = in vivo
[3] = in combination with oxygen

| SMILES | values for select pulmonary function tests versus placebo-treated patients (RDS patients) | patients with improved oxygenation ([1]; inhaled) | mean pulmonary artery pressure and intrapulmonary shunt ([1]; inhaled, without changing systemic arterial pressure or pulmonary capillary wedge pressure) | survival, patients with ARDS ([1]; low-dose inhaled NO (3 to 10 ppm) for 1 to 24 days, 5 of 10 patients) [%] | survival, non-ARDS patients ([1]; low-dose inhaled NO (3 to 10 ppm) for 1 to 24 days, 7 of 7 patients) [%] | arterial PO2 (ovine model of ARDS) | venous admixture (Qva/QT) (ovine model of ARDS; without altering cardiac output) | pulmonary arterial pressure (PAP) and resistance (ovine model of ARDS; without any systemic hemodynamic effects) | toxic effects on main organs [2] | concentrations at which xenon exhibits anaesthetic effects [3] |
| --- | --- | --- | --- | --- | --- | --- | --- | --- | --- | --- |
| [N]=O [nitric oxide] | significantly better | 15 of 17 | lowered | 50 | 100 | increase | decrease | decrease |  |  |
| [Xe] [xenon] |  |  |  |  |  |  |  |  | does not induce significant toxic effects | 10-70 vol. % |
